Measurements from BindingDB's records for doi:10.1021/bi1013479 (University of California Irvine, 2010).

Columns and labels:
Experiment in all cases: Inhibitory Assay
[1] = biological target: T1, Nitric oxide synthase, endothelial (Homo sapiens, UniProt P29474)
T1 sequence (P29474 whole entry): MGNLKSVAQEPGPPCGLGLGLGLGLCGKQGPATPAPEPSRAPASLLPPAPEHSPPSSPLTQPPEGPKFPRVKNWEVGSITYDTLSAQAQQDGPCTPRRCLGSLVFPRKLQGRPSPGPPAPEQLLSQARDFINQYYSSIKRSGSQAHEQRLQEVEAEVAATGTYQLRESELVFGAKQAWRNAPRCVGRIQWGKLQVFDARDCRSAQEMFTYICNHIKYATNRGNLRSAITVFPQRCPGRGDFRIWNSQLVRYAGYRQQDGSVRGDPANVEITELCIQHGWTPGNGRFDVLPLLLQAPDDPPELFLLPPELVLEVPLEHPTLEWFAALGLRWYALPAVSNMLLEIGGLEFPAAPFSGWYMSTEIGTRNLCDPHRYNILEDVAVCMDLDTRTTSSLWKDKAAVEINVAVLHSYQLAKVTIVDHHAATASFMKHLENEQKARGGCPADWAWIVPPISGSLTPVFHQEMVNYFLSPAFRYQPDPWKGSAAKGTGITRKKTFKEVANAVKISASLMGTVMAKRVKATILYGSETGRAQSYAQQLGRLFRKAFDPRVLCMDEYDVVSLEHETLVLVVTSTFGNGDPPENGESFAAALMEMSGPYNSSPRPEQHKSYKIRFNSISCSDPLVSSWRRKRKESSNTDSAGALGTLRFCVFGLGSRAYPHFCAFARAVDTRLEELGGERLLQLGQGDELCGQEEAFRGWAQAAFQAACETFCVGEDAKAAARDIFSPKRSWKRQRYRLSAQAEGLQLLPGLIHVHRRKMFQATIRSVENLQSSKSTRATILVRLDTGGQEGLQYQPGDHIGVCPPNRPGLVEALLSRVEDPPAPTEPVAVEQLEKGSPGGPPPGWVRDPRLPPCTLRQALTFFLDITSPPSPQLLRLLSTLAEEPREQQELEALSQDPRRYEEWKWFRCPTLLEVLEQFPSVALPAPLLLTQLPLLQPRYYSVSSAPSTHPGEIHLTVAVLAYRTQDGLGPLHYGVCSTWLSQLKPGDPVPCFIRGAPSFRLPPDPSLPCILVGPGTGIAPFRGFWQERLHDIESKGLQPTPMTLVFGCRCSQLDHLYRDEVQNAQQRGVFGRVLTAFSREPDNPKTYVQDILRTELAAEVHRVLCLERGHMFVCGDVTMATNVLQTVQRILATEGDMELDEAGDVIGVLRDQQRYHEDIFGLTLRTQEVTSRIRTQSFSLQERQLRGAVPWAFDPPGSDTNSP
From the text: (§1) Inhibition assay using nitric oxide synthases.

[2] = biological target: Nitric oxide synthase, brain (Homo sapiens, UniProt P29475)
Nitric oxide synthase, brain, sequence (P29475 whole entry): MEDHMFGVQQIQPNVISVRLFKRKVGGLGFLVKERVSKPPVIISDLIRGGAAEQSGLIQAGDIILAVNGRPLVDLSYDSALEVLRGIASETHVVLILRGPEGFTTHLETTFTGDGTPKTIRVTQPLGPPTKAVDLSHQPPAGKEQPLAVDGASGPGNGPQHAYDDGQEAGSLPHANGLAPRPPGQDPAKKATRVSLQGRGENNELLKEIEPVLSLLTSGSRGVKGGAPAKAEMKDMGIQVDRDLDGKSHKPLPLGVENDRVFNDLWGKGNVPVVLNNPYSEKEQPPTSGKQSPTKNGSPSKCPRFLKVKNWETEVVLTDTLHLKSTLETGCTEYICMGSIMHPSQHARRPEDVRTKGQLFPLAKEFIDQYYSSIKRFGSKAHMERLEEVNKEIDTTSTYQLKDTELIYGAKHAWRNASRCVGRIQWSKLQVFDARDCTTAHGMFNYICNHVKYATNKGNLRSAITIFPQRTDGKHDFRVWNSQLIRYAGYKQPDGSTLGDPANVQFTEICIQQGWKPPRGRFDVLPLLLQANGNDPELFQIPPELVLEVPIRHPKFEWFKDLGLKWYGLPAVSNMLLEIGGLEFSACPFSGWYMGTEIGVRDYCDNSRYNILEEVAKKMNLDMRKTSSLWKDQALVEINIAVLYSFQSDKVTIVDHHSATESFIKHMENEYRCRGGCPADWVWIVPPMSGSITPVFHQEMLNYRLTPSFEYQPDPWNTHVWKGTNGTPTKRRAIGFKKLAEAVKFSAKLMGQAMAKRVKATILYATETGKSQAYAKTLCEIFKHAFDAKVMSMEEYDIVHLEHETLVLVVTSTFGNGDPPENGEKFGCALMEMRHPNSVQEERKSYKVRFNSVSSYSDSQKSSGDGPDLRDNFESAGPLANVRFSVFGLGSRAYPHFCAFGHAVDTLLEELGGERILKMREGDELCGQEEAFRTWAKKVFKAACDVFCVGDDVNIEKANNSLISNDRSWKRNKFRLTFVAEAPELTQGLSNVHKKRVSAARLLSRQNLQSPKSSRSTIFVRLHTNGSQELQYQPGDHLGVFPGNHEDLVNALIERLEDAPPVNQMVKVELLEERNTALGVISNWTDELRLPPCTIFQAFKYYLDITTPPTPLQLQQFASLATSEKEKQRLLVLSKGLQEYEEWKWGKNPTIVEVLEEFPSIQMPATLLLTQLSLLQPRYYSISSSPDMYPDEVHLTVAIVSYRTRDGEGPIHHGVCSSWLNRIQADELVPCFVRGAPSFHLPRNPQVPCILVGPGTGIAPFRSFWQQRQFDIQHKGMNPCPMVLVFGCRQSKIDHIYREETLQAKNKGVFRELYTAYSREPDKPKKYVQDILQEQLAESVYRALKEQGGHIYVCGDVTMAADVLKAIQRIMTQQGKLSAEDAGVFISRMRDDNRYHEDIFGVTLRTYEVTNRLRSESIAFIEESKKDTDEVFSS
From the text: as §1

[3] = biological target: Nitric oxide synthase, inducible (Homo sapiens, UniProt P35228)
Nitric oxide synthase, inducible, sequence (P35228 whole entry): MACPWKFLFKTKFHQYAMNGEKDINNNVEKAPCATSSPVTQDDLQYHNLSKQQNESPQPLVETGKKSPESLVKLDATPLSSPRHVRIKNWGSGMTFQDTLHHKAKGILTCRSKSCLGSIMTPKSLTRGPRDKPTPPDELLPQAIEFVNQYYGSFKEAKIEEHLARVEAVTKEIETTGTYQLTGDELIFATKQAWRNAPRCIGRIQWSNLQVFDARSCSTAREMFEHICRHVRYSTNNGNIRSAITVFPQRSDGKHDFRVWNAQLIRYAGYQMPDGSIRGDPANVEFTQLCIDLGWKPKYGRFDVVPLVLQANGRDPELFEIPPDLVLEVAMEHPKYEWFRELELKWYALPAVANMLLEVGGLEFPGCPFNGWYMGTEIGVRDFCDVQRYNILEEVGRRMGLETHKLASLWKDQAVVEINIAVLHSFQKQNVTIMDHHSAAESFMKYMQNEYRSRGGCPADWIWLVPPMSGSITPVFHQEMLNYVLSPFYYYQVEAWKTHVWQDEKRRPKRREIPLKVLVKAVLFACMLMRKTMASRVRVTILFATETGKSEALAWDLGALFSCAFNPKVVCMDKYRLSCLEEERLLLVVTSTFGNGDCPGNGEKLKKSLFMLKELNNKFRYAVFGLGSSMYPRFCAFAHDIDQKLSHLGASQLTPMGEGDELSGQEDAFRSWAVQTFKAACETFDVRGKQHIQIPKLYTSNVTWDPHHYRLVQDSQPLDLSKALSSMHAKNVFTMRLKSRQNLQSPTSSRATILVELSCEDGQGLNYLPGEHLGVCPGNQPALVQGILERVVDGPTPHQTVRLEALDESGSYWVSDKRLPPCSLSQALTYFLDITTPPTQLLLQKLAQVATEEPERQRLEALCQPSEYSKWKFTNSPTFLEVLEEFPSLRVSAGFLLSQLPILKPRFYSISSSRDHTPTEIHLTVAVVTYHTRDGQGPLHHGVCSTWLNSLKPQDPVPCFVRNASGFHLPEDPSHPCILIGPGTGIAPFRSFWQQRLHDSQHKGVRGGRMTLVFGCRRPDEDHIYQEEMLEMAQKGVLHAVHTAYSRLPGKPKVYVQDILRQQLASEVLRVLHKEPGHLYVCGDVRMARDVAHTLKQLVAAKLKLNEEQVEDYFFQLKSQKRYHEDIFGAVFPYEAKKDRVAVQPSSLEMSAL
From the text: as §1

Ki [1]	Ki [2]	Ki [3]	Structure (SMILES)
16.1 µM	0.103 µM	1.91 µM	Cc1cc(N)nc(CCc2cncc(CCc3cc(C)nc(N)c3)c2)c1 [6-(2-{5-[2-(2-amino-6-methylpyridin-4-yl)ethyl]pyridin-3-yl}ethyl)-4-methylpyridin-2-amine]
20 µM	0.195 µM	12.6 µM	Cc1cc(N)nc(CCc2cccc(CCc3cc(C)nc(N)c3)n2)c1
4.2 µM	–	2.73 µM	Cc1cc(N)nc(CCc2cccc(CCc3cc(C)cc(N)n3)c2)c1 [NOS Inhibitor, 3h]
4.95 µM	0.085 µM	3.4 µM	Cc1cc(N)nc(CCc2cc(N)cc(CCc3cc(C)cc(N)n3)c2)c1 [6,6'-[(5-aminobenzene-1,3-diyl)diethane-2,1-diyl]bis(4-methylpyridin-2-amine)]
